Results: PubChem BioAssay (NCI)
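The compound was tested at five concentrations on cells cultured in 96-well plates, with a 48-hour exposure period. At the GI50, growth is halved. At the TGI there is no net growth.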

Experiments:
Assay in all cases: growth of human tumour cells (NCI), 48 h
[1] = tested on: HT29 colon
[2] = tested on: A549 NSCLC
[3] = tested on: SF-295 CNS
[4] = tested on: SF-539 CNS
[5] = tested on: SK-MEL-5 melanoma
[6] = tested on: UACC-257 melanoma
[7] = tested on: SK-MEL-2 melanoma
[8] = tested on: RPMI-8226 leukemia
[9] = tested on: NCI-H522 lung
[10] = tested on: M14 melanoma

| SMILES | TGI [1] [µM] | TGI [2] [µM] | TGI [3] [µM] | TGI [4] [µM] | TGI [5] [µM] | TGI [6] [µM] | TGI [7] [µM] | TGI [8] [µM] | TGI [9] [µM] | TGI [10] [µM] | GI50 [1] [µM] | GI50 [2] [µM] | GI50 [3] [µM] | GI50 [4] [µM] | GI50 [5] [µM] | GI50 [6] [µM] | GI50 [7] [µM] | GI50 [8] [µM] | GI50 [9] [µM] | GI50 [10] [µM] |
| --- | --- | --- | --- | --- | --- | --- | --- | --- | --- | --- | --- | --- | --- | --- | --- | --- | --- | --- | --- | --- |
| N#CC1(C2SCCS2=O)C2=C(C(=O)c3ccccc3C2=O)N2CCCC21 (stereo not given) | 14.2 | 6.26 | 7.82 | 9.11 | 1.1 | 2.99 | 4.12 | 9.91 | 5.78 | 2.77 |  |  |  |  |  |  |  |  |  |  |
| Cc1c[n+](Cc2ccc3ccccc3c2)cn1Cc1ccc2ccccc2c1 | 2.53 | 18.7 | 5.56 | 3.05 | 1.94 | 3.16 | 3.68 | 2.49 | 3.05 | 3.66 | 1.07 | 5.05 | 1.95 | 1.57 | 0.688 | 1.46 | 1.85 | 0.595 | 1.41 | 1.58 |
| CC1=C(C(=O)Nc2c(C)cccc2C)C(c2ccccc2Cl)C(C(=O)Nc2c(C)cccc2C)=C(C)N1 | > 100 | > 100 | > 100 | > 100 | > 100 | > 100 | > 100 | > 100 | > 100 | > 100 |  |  |  |  |  |  |  |  |  |  |
| COc1cc(/C=C2\C(=O)Nc3ccc(F)cc32)cc(OC)c1OC | > 100 | > 100 | > 100 | > 100 | > 100 | > 100 | > 100 | > 100 | > 100 | > 100 | 24.8 | 51.8 | > 100 | > 100 | 17.3 | 87.6 | 96.4 | 56.8 | 22.8 | 63.5 |
| Cc1cn2c(/C=C3/C(=O)Nc4ccccc43)c(-c3ccc(Cl)cc3)nc2s1 | 16.2 | 16 | 17.4 | 11.9 | 16 | 27.8 | > 50 | 39.2 | 19.5 | 15.2 | 9.23 | 7.52 | 9.22 | 5.8 | 9.06 | 10.5 | 30.8 | 12.3 | 9.01 | 8.39 |
| O=C1CSC(Cc2nc3ccccc3[nH]2)=N1 | > 100 | 79.5 | 63.3 | 43.1 | 26.6 | > 90.7 | 38.4 | > 100 | 40.4 | 33.4 |  |  |  |  |  |  |  |  |  |  |
| COc1ccccc1NC(=O)C1=C(C)NC(C)=C(C(=O)Nc2ccccc2OC)C1c1ccc([N+](=O)[O-])cc1 | > 100 | > 100 | 55.9 | > 100 | > 100 | > 100 | > 100 | > 100 | > 100 | > 100 |  |  |  |  |  |  |  |  |  |  |
| O=C(N/N=C\c1cc(Br)ccc1O)c1ccncc1 | > 100 | > 100 | > 100 | 48.7 | 21.8 | 15.9 | > 100 | > 100 | 19.8 | 26 | 5.7 | 4.27 | 3.47 | 2.93 | 2.6 | 2.33 | 4.29 | 3.08 | 2.17 | 2.45 |
| COc1ccc(-n2cc(-c3ccc(Cl)c(Cl)c3)nc2SCc2cccc(C#N)c2)cc1 | > 100 | > 100 | > 100 | 41.9 | > 100 | > 100 | > 100 | > 100 | > 100 | > 100 | 4.7 | 93.8 | 22.2 | 16.1 | 20.2 | 66.9 | > 100 | > 100 | 13.6 | 48.2 |
| O=C1/C(=C\c2cccn2Cc2ccccc2)c2ccccc2N1c1c(Cl)cccc1Cl | > 100 | > 100 | > 100 | > 100 | > 100 | > 100 | > 30.1 | > 100 | > 100 | > 100 | 10.7 | 8.32 | > 100 | > 100 | 3.02 | > 100 | 2.4 | 1.3 | > 100 | > 100 |
| NC(=O)C(=CNc1nc(-c2ccc(Cl)c(Cl)c2)cs1)C(N)=O | > 100 | > 100 | > 100 | > 100 | > 100 | > 100 | > 100 | > 100 | > 100 | > 100 | > 100 | 85.7 | 37.1 | 46.4 | 71.6 | > 100 | 75.6 | 40.4 | 11.8 | > 100 |
| OCCCCC#Cc1ccccc1C#Cc1cccc(O)c1 | 31.8 | 32.2 | 41.7 | 35.8 | 32.7 | 33.1 | 38.8 | 53.7 | 28.9 | 35.1 | 17.1 | 15.7 | 21 | 17.5 | 17.8 | 18.1 | 18.6 | 20.7 | 14.3 | 17.4 |
| O=C(O)c1cccc(OCCO)c1 | > 100 | > 100 | > 100 | > 100 | > 100 | > 100 | > 100 | > 100 | > 100 | > 100 |  |  |  |  |  |  |  |  |  |  |
| O=[N+]([O-])c1ccc(-n2nnc(C3=NCCCN3)c2-c2ccc(Cl)cc2)cc1 | > 100 | > 100 | > 100 | > 100 | > 100 | > 100 | > 100 | > 100 | > 100 | > 100 |  |  |  |  |  |  |  |  |  |  |
| O=C(Nc1cccc(Cl)c1Cl)c1cccc(NC2=C(Cl)C(=O)N(Cc3ccccc3)C2=O)c1 | > 100 | > 100 | > 100 | 40.6 | > 100 | 72.3 | 58.6 | 35.1 | 54.7 | > 100 | 79.9 | 36.2 | 35.7 | 9.87 | 20.1 | 23.3 | 16.9 | 7.96 | 12.6 | 35.8 |
| COC(=O)C12C3C4C5(C(=O)OC)C(C1C35C(=O)N(C(C)C)C(C)C)C42C(=O)N(C(C)C)C(C)C (stereo not given) | > 50 | > 50 | > 50 | > 50 | > 50 | > 50 | > 50 | > 50 | > 50 | > 50 |  |  |  |  |  |  |  |  |  |  |
| COC(=O)[C@@H](NC(=O)[C@@H](OC)[C@@H]1Cc2cc3cc(OC4CC(OC5CC(O)C(O)C(C)O5)C(O)C(C)O4)c(C)c(O)c3c(O)c2C(=O)[C@H]1OC1CC(OC2CC(OC3CC(C)(O)C(O)C(C)O3)C(O)C(C)O2)C(O)C(C)O1)C(C)C (stereo not given in full) | > 32.5 | > 32.5 | 2.11 | 0.847 | 0.408 | 8.91 | 7.94 | 0.619 | 2.02 | > 32.5 | 0.129 | 0.141 | 0.0934 | 0.127 | 0.0727 | 0.128 | 0.194 | 0.0918 | 0.112 | 0.147 |
| C#C[C@]1(O)CC[C@H]2[C@@H]3CC=C4c5sc(Nc6ccccc6)nc5CC[C@]4(C)[C@H]3CC[C@@]21C | 6.68 | 24.9 | 0.649 | 1.52 | 3.26 | 8.6 | 5.75 | 1.6 | 6.26 | 4.51 | 1.81 | 3.48 | 0.244 | 0.37 | 1.72 | 2.46 | 1.61 | 0.309 | 2.27 | 1.6 |
| COc1cc(NC(C)CCCN)c2nccc(C)c2c1OC (stereo not given) | 20.9 | 58.5 | 32.5 | 22.5 | 15.7 | 29.4 | 49.8 | 23.2 | 19.6 | 12.7 | 4.72 | 22.8 | 17 | 10.2 | 3.97 | 13.7 | 18.8 | 5.67 | 5.28 | 2.97 |
| COC(=O)/C=C/C1C(C(=O)OC)C2(C(=O)OC)CCC1(C(=O)OC)N2 (stereo not given) | > 100 | > 100 | > 100 | > 100 | > 100 | > 100 | > 100 | > 100 | > 100 | > 100 |  |  |  |  |  |  |  |  |  |  |
| N#CC(C(=O)/C(=N/Nc1nc(=S)[nH]n1N)C(C#N)c1ccccc1)c1ccccc1 (stereo not given) | > 100 | > 100 | > 100 | > 100 | > 100 | > 100 | > 100 | > 100 | > 100 | > 100 |  |  |  |  |  |  |  |  |  |  |
| N#CC(/C(=N/NC(=O)C(=O)NN)C(=O)NC12CC3CC(CC(C3)C1)C2)c1ccccc1 (stereo not given) | > 100 | > 100 | > 100 | > 100 | > 100 | > 100 | > 100 | > 100 | > 100 | > 100 |  |  |  |  |  |  |  |  |  |  |
| CCOC(=O)N1CCN(C(=O)c2ccc(C(F)(F)F)nc2Nc2cc(Cl)ccc2C)CC1 | 34.8 | > 100 | 65.3 | > 100 | 23.2 | > 100 | 72.9 | 64.8 | 27.4 | > 100 | 13.2 | 14.8 | 14.6 | 33.7 | 10.1 | 27.2 | 22.3 | 11.4 | 4.43 | 23.7 |
| COc1cc2c(cc1OC)C13CCN4CC5=CCOC6CC(=O)N2C1C6C5CC43O (stereo not given) | > 100 | > 100 | > 100 | > 100 | > 100 | > 100 | > 100 | > 100 | > 100 | > 100 |  |  |  |  |  |  |  |  |  |  |
| COc1ccc(CNc2c3ccccc3nc3ccccc23)cc1OC | 7.85 | 6.87 | 7.2 | 11.3 | 3.64 | 8.22 | 6.4 | 5.59 | 4.15 | 4.76 | 1.71 | 2.24 | 2.19 | 2.82 | 1.87 | 2.73 | 2.28 | 2.2 | 1.55 | 1.97 |
| CCCCCCCCCc1cc(=O)c2c(O)cccc2o1 | > 10 | > 100 | > 100 | > 100 | 46.6 | > 100 | 64.7 | > 100 | > 100 | > 100 |  |  |  |  |  |  |  |  |  |  |
| O=C(C[n+]1ccccc1)NNC(=O)/C(=C/c1ccc2c(c1)OCO2)NC(=O)c1ccccc1 | > 100 | > 100 | > 100 | 75.1 | 98.4 | > 100 | > 100 | 63 | > 70.8 | > 100 |  |  |  |  |  |  |  |  |  |  |
| COc1ccc(/C=c2/sc3n(c2=O)C(c2ccc(OC)c(OC)c2)C2=C(N=3)c3cc(F)ccc3OC2)cc1 (stereo not given) | > 100 | > 82 | 54.1 | > 100 | > 62.4 | > 88.8 | > 92.4 | 99.7 | > 100 | > 100 | 16.2 | 23.6 | 15.7 | 43 | 22.3 | 35 | > 45.2 | > 25 | 51.8 | 36.9 |
| O=S(O)CCCCSSCc1ccccc1CSSCCCCS(=O)O | 20.6 | > 100 | 49.8 | 64.2 | 23.2 | 18.2 | > 100 | 45.8 | 18.7 | 26.7 |  |  |  |  |  |  |  |  |  |  |
| Clc1ccc(-c2c(C3=NCCN3)nnn2-c2ccc(Cl)cc2)cc1 | 36.2 | > 100 | 38.9 | 34.2 | 30.5 | 33 | 26.1 | 38.8 | 30.1 | 31.7 |  |  |  |  |  |  |  |  |  |  |
